Test results from patent US20250026721A1, “COMPOUNDS AND METHODS FOR MODULATING RAS-PI3K” (Vividion Therapeutics, Inc., priority 2023, published 2025).
pIC50: −log10 of the molar value.

Assays:
PIK3CA = biological target: T1, PIK3CA (Homo sapiens, UniProt P42336); assay: In vitro ELISA target engagement assay for PIK3CA in Jurkat cellular lysate (competition with PIK3CA Biotin Probe); format: binding; conditions: 1 hour at rt, then 500 nM PIK3CA Biotin Probe, read-out: Elisa Target Engagement Assay (TE50)
T1 construct: endogenous in cells; host or cells: Jurkat cell lysate
How it was run: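 Competition format in Jurkat lysate: compound (serial dilutions, top 200 μM) for 1 h at rt, then 500 nM final biotinylated PIK3CA probe for 1 h at rt. Sandwich ELISA with capture antibody and Neutravidin-HRP luminescence read-out measured probe-labelled PIK3CA, giving TE50.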

[1] = test system: pAKT(S473) in FaDu cell line; assay: In vitro Phospho-AKT(S473) HTRF analysis in FaDu cells; format: cell-based; conditions: Homo sapiens, 0.5 h; for pIC50: FaDu cells, 30 minutes at 37° C.; for Emax: FaDu, read-out: FaDu pAKT Imax % control
Description: Example 5. In Vitro Phosgho-AKT(S473) Analysis
Functional activity of the compounds to inhibit pAKT were assessed in FaDu or H358 cell lines as indicated below.
• Complete Media • FBS, Corning catalog #35-010-CV • Anti-Anti, Gibco catalog #15240-062 • 96 well plate, Corning catalog #3610 • TrypLE, Gibco catalog #12604013 • Phospho-AKT(S473) HTRF kit, Cisbio catalog #64AKSPET
Cells were detached from the tissue culture flask with TrypLE. The cells were pelleted at 500×g for 5 min, TrypLe was removed and then resuspended in the necessary volume of media+1% FBS to give the appropriate cell density (17,500 cells/mL for FaDu; 20,000 cells/mL for H358). 100 μL of cell suspension/well was dispensed into the 96-well plate while keeping the outer wells of the plate free of cells and filled with PBS to prevent evaporation of interior wells. The plate was incubated at 37° C. and allowed to adhere overnight. The cells were treated with a dose response of compound and incubated at 37° C. for 30 minutes. The cells were then processed and pAKT(S473) levels were assessed following the specifications of the Cisbio HTRF kit.

T1 sequence (P42336 whole entry): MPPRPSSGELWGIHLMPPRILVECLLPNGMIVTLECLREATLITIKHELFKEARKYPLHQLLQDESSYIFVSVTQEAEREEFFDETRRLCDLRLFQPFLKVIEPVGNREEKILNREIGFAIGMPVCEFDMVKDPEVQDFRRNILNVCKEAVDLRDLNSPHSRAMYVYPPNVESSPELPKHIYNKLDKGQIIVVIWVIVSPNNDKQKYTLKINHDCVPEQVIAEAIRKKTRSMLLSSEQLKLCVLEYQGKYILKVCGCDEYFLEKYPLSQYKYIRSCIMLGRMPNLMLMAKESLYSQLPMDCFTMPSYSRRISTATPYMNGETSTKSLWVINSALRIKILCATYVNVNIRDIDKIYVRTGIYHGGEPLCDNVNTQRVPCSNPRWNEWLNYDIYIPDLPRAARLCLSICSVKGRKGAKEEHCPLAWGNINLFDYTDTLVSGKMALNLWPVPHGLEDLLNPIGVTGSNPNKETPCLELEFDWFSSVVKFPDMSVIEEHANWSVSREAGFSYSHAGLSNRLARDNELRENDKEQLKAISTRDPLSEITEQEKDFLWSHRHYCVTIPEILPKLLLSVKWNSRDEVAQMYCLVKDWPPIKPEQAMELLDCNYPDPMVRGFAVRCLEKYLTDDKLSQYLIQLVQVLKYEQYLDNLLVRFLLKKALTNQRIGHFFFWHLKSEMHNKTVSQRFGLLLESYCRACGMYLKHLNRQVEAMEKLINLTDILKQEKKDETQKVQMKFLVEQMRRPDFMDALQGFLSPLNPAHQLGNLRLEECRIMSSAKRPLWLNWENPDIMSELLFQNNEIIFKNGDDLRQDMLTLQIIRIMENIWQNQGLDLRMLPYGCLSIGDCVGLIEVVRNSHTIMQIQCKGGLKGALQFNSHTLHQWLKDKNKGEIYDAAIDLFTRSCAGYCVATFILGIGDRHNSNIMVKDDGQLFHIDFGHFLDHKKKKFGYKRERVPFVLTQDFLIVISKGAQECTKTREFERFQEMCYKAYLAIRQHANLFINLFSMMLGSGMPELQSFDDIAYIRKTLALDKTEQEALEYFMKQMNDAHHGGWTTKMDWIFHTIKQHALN
T1 sequence (P27986 whole entry partner): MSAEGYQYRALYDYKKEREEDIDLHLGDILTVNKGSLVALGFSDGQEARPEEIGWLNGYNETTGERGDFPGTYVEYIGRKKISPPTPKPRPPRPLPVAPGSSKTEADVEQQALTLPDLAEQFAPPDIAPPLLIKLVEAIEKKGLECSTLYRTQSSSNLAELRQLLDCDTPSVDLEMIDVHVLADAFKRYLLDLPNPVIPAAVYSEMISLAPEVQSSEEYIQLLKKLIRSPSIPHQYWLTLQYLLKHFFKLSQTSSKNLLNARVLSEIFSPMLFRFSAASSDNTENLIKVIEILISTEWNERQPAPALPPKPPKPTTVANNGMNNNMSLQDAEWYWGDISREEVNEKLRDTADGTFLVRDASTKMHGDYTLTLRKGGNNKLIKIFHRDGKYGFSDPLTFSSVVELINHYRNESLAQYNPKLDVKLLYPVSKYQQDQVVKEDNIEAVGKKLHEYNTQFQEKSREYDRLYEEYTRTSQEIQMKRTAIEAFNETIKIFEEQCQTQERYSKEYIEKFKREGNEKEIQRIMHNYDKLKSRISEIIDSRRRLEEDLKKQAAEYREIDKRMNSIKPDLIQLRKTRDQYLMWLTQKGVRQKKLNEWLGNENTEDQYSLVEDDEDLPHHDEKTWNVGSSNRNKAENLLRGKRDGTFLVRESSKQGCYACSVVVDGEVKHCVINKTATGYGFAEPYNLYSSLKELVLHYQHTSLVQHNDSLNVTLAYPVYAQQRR

SMILES	pIC50 (PIK3CA)	pIC50 [1]	Emax [1] [%]
C[C@H](/C=C/C(=O)N1CC(F)(F)C1)NC(=O)[C@@]1(F)CCCN(C(=O)c2ccc(C(F)(F)F)cc2-c2ccccc2Cl)CC1 [Compound 244, (R)-1-(2′-chloro-5-(trifluoromethyl)-[1,1′-biphenyl]-2-carbonyl)-N-((R,E)-5-(3,3-difluoroazetidin-1-yl)-5-oxopent-3-en-2-yl)-4-fluoroazepane-4-carboxamide]	6.11	5.92	76.3
C[C@H](/C=C\S(=O)(=O)[C@@H]1CCN(C)C1)NC(=O)C1(F)CCN(S(=O)(=O)c2ccc(Br)cc2-c2ccccc2Cl)CC1 (single isomer, unassigned) [Compound 237, 1-((5-bromo-2′-chloro-[1,1′-biphenyl]-2-yl)sulfonyl)-4-fluoro-N-((R,Z)-4-(((*R)-1-methylpyrrolidin-3-yl)sulfonyl)but-3-en-2-yl)piperidine-4-carboxamide]	7.26	7.13	
[2H]C([2H])([2H])Oc1ccc(S(=O)(=O)N2CC[C@@](F)(C(=O)N[C@H](C)/C=C/C(=O)N3CC(F)(F)C3)C[C@H]2C)c(-c2ccccc2Cl)c1 [Compound 300, (2R,4S)-1-((2′-chloro-5-(methoxy-d3)-[1,1′-biphenyl]-2-yl)sulfonyl)-N-((R,E)-5-(3,3-difluoroazetidin-1-yl)-5-oxopent-3-en-2-yl)-4-fluoro-2-methylpiperidine-4-carboxamide]	6.51	6.38	94.2
CC(=O)c1ccc(S(=O)(=O)N2CCC(F)(C(=O)N[C@H](C)/C=C/C(=O)N3CC(F)(F)C3)CC2)c(-c2ccccc2Cl)c1 [Compound 138, (R,E)-1-((5-acetyl-2′-chloro-[1,1′-biphenyl]-2-yl)sulfonyl)-N-(5-(3,3-difluoroazetidin-1-yl)-5-oxopent-3-en-2-yl)-4-fluoropiperidine-4-carboxamide]	6.47	6.53	93.5
COc1ccc(C(=O)N2CCC[C@](F)(C(=O)N[C@@H]3C=CS(=O)(=O)C3)CC2)c(-c2ccccc2Cl)c1 [Compound 294, (R)-1-(2′-chloro-5-methoxy-[1,1′-biphenyl]-2-carbonyl)-N-((R)-1,1-dioxido-2,3-dihydrothiophen-3-yl)-4-fluoroazepane-4-carboxamide]	6.92	5.67	
C[C@H](/C=C/C(=O)N1CC(F)(F)C1)NC(=O)C1(F)CCN(S(=O)(=O)c2cnc(C(F)(F)F)cc2-c2ccccc2Cl)CC1 [Compound 213, (R,E)-1-((4-(2-chlorophenyl)-6-(trifluoromethyl)pyridin-3-yl)sulfonyl)-N-(5-(3,3-difluoroazetidin-1-yl)-5-oxopent-3-en-2-yl)-4-fluoropiperidine-4-carboxamide]	6.64	6.54	90.8
C[C@H](/C=C\S(=O)(=O)[C@H]1CCN(C)C1)NC(=O)C1(F)CCN(S(=O)(=O)c2ccc(Br)cc2-c2ccccc2Cl)CC1 (single isomer, unassigned) [Compound 238, 1-((5-bromo-2′-chloro-[1,1′-biphenyl]-2-yl)sulfonyl)-4-fluoro-N-((R,Z)-4-(((*S)-1-methylpyrrolidin-3-yl)sulfonyl)but-3-en-2-yl)piperidine-4-carboxamide]	7.60	7.53	
C[C@H](/C=C/C(=O)N1CC(F)(F)C1)NC(=O)[C@]1(F)CCN(S(=O)(=O)c2ccc(C(F)F)cc2-c2ccccc2Cl)[C@H](C)C1 [Compound 253, (2R,4S)-1-((2′-chloro-5-(difluoromethyl)-[1,1′-biphenyl]-2-yl)sulfonyl)-N-((R,E)-5-(3,3-difluoroazetidin-1-yl)-5-oxopent-3-en-2-yl)-4-fluoro-2-methylpiperidine-4-carboxamide]	6.80	6.57	77.2
COc1ccc(S(=O)(=O)N2CCC[C@](F)(C(=O)N[C@H](C)/C=C\S(C)(=O)=O)CC2)c(-c2ccccc2Cl)c1 [Compound 312, (R)-1-((2′-chloro-5-methoxy-[1,1′-biphenyl]-2-yl)sulfonyl)-4-fluoro-N-((R,Z)-4-(methylsulfonyl)but-3-en-2-yl)azepane-4-carboxamide]	7.10	6.85	
CS(=O)(=O)/C=C\[C@H](CC(F)(F)F)NC(=O)C1(F)CCN(S(=O)(=O)c2ccc(Br)cc2-c2ccccc2Cl)CC1 (single isomer, unassigned) [Compound 240, (*S,Z)-1-((5-bromo-2′-chloro-[1,1′-biphenyl]-2-yl)sulfonyl)-4-fluoro-N-(5,5,5-trifluoro-1-(methylsulfonyl)pent-1-en-3-yl)piperidine-4-carboxamide]	6.92	6.36	
C[C@H](/C=C/C(=O)N1CC(F)C1)NC(=O)C1(F)CCN(S(=O)(=O)c2ccc(C(F)(F)F)cc2-c2ccccc2Cl)CC1 [Compound 216, (R,E)-1-((2′-chloro-5-(trifluoromethyl)-[1,1′-biphenyl]-2-yl)sulfonyl)-4-fluoro-N-(5-(3-fluoroazetidin-1-yl)-5-oxopent-3-en-2-yl)piperidine-4-carboxamide]	6.26	6.16	108
O=C(/C=C/CNC(=O)C1(F)CCN(S(=O)(=O)c2ccc(Br)cc2-c2ccccc2Cl)CC1)N1CC(F)(F)C1 [Compound 282, (E)-1-((5-bromo-2′-chloro-[1,1′-biphenyl]-2-yl)sulfonyl)-N-(4-(3,3-difluoroazetidin-1-yl)-4-oxobut-2-en-1-yl)-4-fluoropiperidine-4-carboxamide]	6.85	6.43	
O=C([C@H]1CN(CC(F)(F)F)C[C@H]1c1ccccc1Cl)N1CCC[C@](F)(C(=O)N[C@@H]2C=CS(=O)(=O)C2)CC1 [Compound 176, (R)-1-((3R,4R)-4-(2-chlorophenyl)-1-(2,2,2-trifluoroethyl)pyrrolidine-3-carbonyl)-N-((R)-1,1-dioxido-2,3-dihydrothiophen-3-yl)-4-fluoroazepane-4-carboxamide]	6.12	6.17	83.3
C[C@H](/C=C\S(C)(=O)=O)NC(=O)[C@@]1(F)CCCN(S(=O)(=O)c2ccc(C(F)(F)F)cc2-c2ccccc2Cl)CC1 [Compound 310, (R)-1-((2′-chloro-5-(trifluoromethyl)-[1,1′-biphenyl]-2-yl)sulfonyl)-4-fluoro-N—((R,Z)-4-(methylsulfonyl)but-3-en-2-yl)azepane-4-carboxamide]	7.07	7.11	
CC(O)c1ccc(S(=O)(=O)N2CC[C@@](F)(C(=O)N[C@H](C)/C=C/C(=O)N3CC(F)(F)C3)C[C@H]2C)c(-c2ccccc2Cl)c1 (mixture of isomers) [Compound 252, (2R,4S)-1-((2′-chloro-5-((RS)-1-hydroxyethyl)-[1,1′-biphenyl]-2-yl)sulfonyl)-N-((R,E)-5-(3,3-difluoroazetidin-1-yl)-5-oxopent-3-en-2-yl)-4-fluoro-2-methylpiperidine-4-carboxamide]	6.55	6.60	85.8
C[C@H](/C=C\S(C)(=O)=O)NC(=O)C1(F)CCN(S(=O)(=O)c2ccc(Br)cc2-c2cccc(Br)c2)CC1 [Compound 58, (R,Z)-1-((3′,5-dibromo-[1,1′-biphenyl]-2-yl)sulfonyl)-4-fluoro-N-(4-(methylsulfonyl)but-3-en-2-yl)piperidine-4-carboxamide]	6.07	6.13	97.5
CC[C@H](/C=C\S(C)(=O)=O)NC(=O)[C@@]1(F)CCCN(C(=O)[C@H]2CN(CC(F)(F)F)C[C@H]2c2ccccc2Cl)CC1 [Compound 198, (R)-1-((3R,4R)-4-(2-chlorophenyl)-1-(2,2,2-trifluoroethyl)pyrrolidine-3-carbonyl)-4-fluoro-N-((R,Z)-1-(methylsulfonyl)pent-1-en-3-yl)azepane-4-carboxamide]	6.27	6.33	95.2
O=C(/C=C\CNC(=O)C1(F)CCN(S(=O)(=O)c2ccc(C(F)(F)F)cc2-c2ccccc2Cl)CC1)N1CC(F)(F)C1 [Compound 284, (Z)-1-((2′-chloro-5-(trifluoromethyl)-[1,1′-biphenyl]-2-yl)sulfonyl)-N-(4-(3,3-difluoroazetidin-1-yl)-4-oxobut-2-en-1-yl)-4-fluoropiperidine-4-carboxamide]	7.21	7.17	
C[C@H](/C=C\S(C)(=O)=O)NC(=O)[C@@]1(F)CCCN(C(=O)[C@H]2CN(C3CC3)C[C@H]2c2ccccc2Cl)CC1 [Compound 303, (R)-1-((3R,4R)-4-(2-chlorophenyl)-1-cyclopropylpyrrolidine-3-carbonyl)-4-fluoro-N-((R,Z)-4-(methylsulfonyl)but-3-en-2-yl)azepane-4-carboxamide]	6.25	6.61	102
